Measured values reported in paper PMC10382584, “Macrocyclization of linear molecules by deep learning to facilitate macrocyclic drug candidates discovery” (Nature Communications, 2023).
Several values for one entry are separate records, joined by “and”; a condition that tells them apart may be missing. Equal values may be shown once. Read-outs that look alike come from different tables or passages of the source.

Key:
DSS-induced colitis mice = assay: In vivo efficacy study, DSS-induced colitis model; parameters: species or system male BALB/c mice; details: Fedratinib 10 mg/kg; for DAI score (Fig. 6b) / Body weight (Fig. 6a): individual mice
Description: Model mice were divided into four groups and eight mice were included in each group on day 8. […] Meanwhile, solvent was given intragastrically to the control group and model group. On day 15, the mice were sacrificed, and the length and weight of each colon were measured.
Body weight, the stool consistency, and the presence of blood in feces were recorded daily in the morning. […] The maximum score was 9, which was the sum of the scores. About 1-cm colon tissue, which is 0.5 cm away from the anal margin, was collected, and the ileocecal area was used for histopathological examination. After H&E staining, the tissues were scored under single-blind conditions to evaluate the levels of inflammation and tissue damage in the colons following the criteria proposed by ref. [62]. Statistical analyses were performed using SPSS v24.0.

[1] = Chemical stability in DMSO stock solution (HPLC purity); type: physicochemical; details: mean±SD
Description: compounds were formulated in the solubilizing vehicle (5% DMSO/30% PEG400/65% […]
safety to the mice in the test.
6. What was the sample dissolved in for the in vitro and in vivo experiments? Response: The solvent information for the in vitro and in vivo experiments has been added in the revised manuscript. […]
7. Was the stability of the different compounds assessed and compared to Fedratinib? This is generally a critical point in macrocyclic studies. […]
in DMSO stock solution. Test compounds were incubated at room temperature and 60 ℃, respectively, for 72 h, and their purities (%) were determined using HPLC equipped with a CORTECS C18 column (4.6*50 mm, 2.7 μm particle size) and a UV/VIS detector setting of λ=210 nm. All co mpounds were eluted with the two solvent systems ([…] as organic phase in Method I and CH3OH as organic phase in Method II) at a flow rate of 0.3 ml/min. Each experiment repeated for three times and the results are represented as mean±SD.
Ta b e l R 1 . Comparison of chemical stability of different compounds at room temperature and 60 ℃, respectively.

SET-2 cells = assay: Cell proliferation assay (CCK-8), SET-2 cells; type: cell-based, human; details: for Inhibition (%): single wells of replicate 1 and replicate 2
Description: (§1) The human erythroid leukemia (HEL 92.1.7) cells were purchased from the American Type Culture Collection (ATCC, TIB-180), and the human megakaryoblastic (SET2) cells were obtained from German Collection of Microorganisms and Cell Cultures (DSMZ, ACC 608). The anti-proliferative activities of compounds were evaluated using WST-8 cell counting kit-8 (Elabscience). HEL and SET-2 cells were seeded at 5000 cells/well in 70 μL RPMI-1640 medium (Hyclon) with 10% FBS (Gibco) to the 96-well plate and incubated overnight at 37 °C with 5% CO2. The compounds were serially diluted in RPMI-1640 medium, and cells were treated separately with 30 μL various concentrations of compounds for 72 h. The final DMSO concentration in the culture wells was 0.1%, which had no effect on the cell viability. Finally, 10 μL of CCK-8 solution was added into the wells. 4 h later, the absorbance values at 450 nm were recorded. IC50 values were determined using GraphPad Prism v8.3.0, and three parallel experiments were performed.

HEL cells = assay: Cell proliferation assay (CCK-8), HEL cells; type: cell-based, human
Description: as §1

In vivo PK study in mice = details: male, BALB/c, mouse, plasma, 5 mg/kg
Description: The mice were separately administered to a group of three mice per time point for intravenous (5 mg/kg) or oral administration (5 mg/kg). […] Then the samples were separated by centrifugation and analyzed by LC-MS/MS (XEVO TQ-S) to determine the plasma drug concentrations. The PK parameters were calculated using the noncompartment model with Phoenix WinNonLin v8.0. The animal experimental procedures were approved by the Medicine Research Ethics Committee of Hangzhou Leading Pharmatech Co., Ltd.
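For Cmax in this document: mice dosed intravenously or orally, three animals per time point, plasma drug levels quantified by LC-MS/MS, PK parameters derived by noncompartmental analysis in Phoenix WinNonLin.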
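For Tmax in this document: mice dosed intravenously or orally, three animals per time point, plasma drug levels quantified by LC-MS/MS, PK parameters derived by noncompartmental analysis in Phoenix WinNonLin.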

Structure (SMILES): Cc1cnc(Nc2ccc(OCCN3CCCC3)cc2)nc1Nc1cccc(S(=O)(=O)NC(C)(C)C)c1 [Fedratinib]
- histological scores (H&E, Ameho criteria) (DSS-induced colitis mice; 3.5% DSS colitis mice, compound 3 5 mg/kg): lower
- body weight change (DSS-induced colitis mice; 3.5% DSS colitis mice, compound 3 5 mg/kg, intragastric, day 8 to day 14): alleviate the decrease of body weight
- DAI score (Fig. 6b) (DSS-induced colitis mice; day 0): 0
- Body weight (Fig. 6a) (DSS-induced colitis mice; day 0, in g (unit assumed)): 22.2 and 22.7 and 23.9 and 22.6 and 19.9 and 23.6 and 20.6 and 23.1
- DAI score (Fig. 6b) (DSS-induced colitis mice; day 1): 1 (4×) and 0 (4×)
- Body weight (Fig. 6a) (DSS-induced colitis mice; day 1, in g (unit assumed)): 21.3 and 24.2 and 23.6 and 23.8 and 21.7 and 23.2 and 20.9 and 22
- DAI score (Fig. 6b) (DSS-induced colitis mice; day 2): 0 (3×) and 1 (5×)
- Body weight (Fig. 6a) (DSS-induced colitis mice; day 2, in g (unit assumed)): 22.6 and 23.8
- DAI score (Fig. 6b) (DSS-induced colitis mice; day 3): 0 (5×) and 1 (3×)
- Body weight (Fig. 6a) (DSS-induced colitis mice; day 4): 21.8 and 22.7 and 23.6 (2×) and 22.3 and 21.7 and 19.8 and 23.2
- DAI score (Fig. 6b) (DSS-induced colitis mice; day 4): 1 (5×) and 3 (2×) and 0
- DAI score (Fig. 6b) (DSS-induced colitis mice; day 5): 0 (3×) and 3 (2×) and 1 and 4 and 2
- Body weight (Fig. 6a) (DSS-induced colitis mice; day 5, in g (unit assumed)): 22 and 21.8 and 23.1 and 21 and 21.9 and 23.6 and 18.9 and 22.7
- DAI score (Fig. 6b) (DSS-induced colitis mice; day 6): 1 (4×) and 6 and 7 and 2 and 5
- Body weight (Fig. 6a) (DSS-induced colitis mice; day 6, in g (unit assumed)): 22.1 and 20.1 and 22.6 and 19.3 and 21.5 and 23.6 and 17.1 and 20.5
- Body weight (Fig. 6a) (DSS-induced colitis mice; day 7): 21.8 (2×) and 19 and 22.5 and 18.2 and 23.9 and 16 and 18.3
- DAI score (Fig. 6b) (DSS-induced colitis mice; day 7): 2 (2×) and 7 (3×) and 0 and 3 and 6
- DAI score (Fig. 6b) (DSS-induced colitis mice; day 8): 0 (5×) and 3 (2×) and 6
- Body weight (Fig. 6a) (DSS-induced colitis mice; day 8, in g (unit assumed)): 22.3 and 18.8 and 23.8 and 18.6 and 21.7 and 24 and 15.6 and 17.2
- DAI score (Fig. 6b) (DSS-induced colitis mice; day 9): 0 (5×) and 3 (2×) and 1
- Body weight (Fig. 6a) (DSS-induced colitis mice; day 9, in g (unit assumed)): 22.3 and 19.4 and 23.7 and 19.1 and 19.3 and 24.2 and 15.3
- DAI score (Fig. 6b) (DSS-induced colitis mice; day 10): 2 (2×) and 1 (3×) and 0 (2×)
- Body weight (Fig. 6a) (DSS-induced colitis mice; day 10, in g (unit assumed)): 21.6 and 18.4 and 23.8 and 19.7 and 19 and 23.6 and 15.4
- DAI score (Fig. 6b) (DSS-induced colitis mice; day 11): 0 (5×) and 1 and 2
- Body weight (Fig. 6a) (DSS-induced colitis mice; day 11, in g (unit assumed)): 21.9 and 18.6 and 23.5 and 20.2 and 18.7 and 23.6 and 16
- DAI score (Fig. 6b) (DSS-induced colitis mice; day 12): 0 (5×) and 1
- Body weight (Fig. 6a) (DSS-induced colitis mice; day 12, in g (unit assumed)): 22.2 and 19.1 and 24.1 and 19.9 and 19.4 and 23.8 and 16
- Body weight (Fig. 6a) (DSS-induced colitis mice; day 13, in g (unit assumed)): 21.9 and 19.8 and 24.2 and 20.4 and 20.1 and 24 and 16.1
- Body weight (Fig. 6a) (DSS-induced colitis mice; day 14, in g (unit assumed)): 22.6 and 20.3 and 24.5 and 20.4 and 20.8 and 24.1 and 16.5
- HE staining score (Fig. 6d) (DSS-induced colitis mice; individual colon tissues (n = 5)): 1 and 3 and 0
- symptoms in DSS-induced murine colitis (DSS-induced colitis mice; compound 3 5 mg/kg): ameliorate the symptoms
- purity after incubation in DMSO stock solution ([1]; 60 ℃, 0 h): 98.91±0.10%
- purity after incubation in DMSO stock solution ([1]; 60 ℃, 2 h): 98.91±0.10%
- purity after incubation in DMSO stock solution ([1]; 60 ℃, 24 h): 98.89±0.17%
- purity after incubation in DMSO stock solution ([1]; 60 ℃, 48 h): 100.00±0.00%
- purity after incubation in DMSO stock solution ([1]; 60 ℃, 72 h): 98.96±0.15%
- purity after incubation in DMSO stock solution ([1]; Room Temperature, 0 h): 99.36±0.06%
- purity after incubation in DMSO stock solution ([1]; Room Temperature, 2 h): 99.11±0.14%
- purity after incubation in DMSO stock solution ([1]; Room Temperature, 24 h): 99.99±0.00%
- purity after incubation in DMSO stock solution ([1]; Room Temperature, 48 h): 99.08±0.02%
- purity after incubation in DMSO stock solution ([1]; Room Temperature, 72 h): 99.57±0.06%
- IC50 (SET-2 cells; Homo sapiens, SET-2, 72 h, SET-2 cells, 72 h, mean ± SD, read-out: Cellular Antiproliferative Activity (IC50) SET-2): 1.12 ± 0.08 µM
- IC50 (SET-2 cells; Homo sapiens, SET-2, SET-2 cell lines, mean of two replicates, read-out: IC50/μM mean): 1.12 µM
- IC50 (SET-2 cells; Homo sapiens, SET-2, SET-2 cell lines, mean ± sd of two replicates, read-out: IC50/μM mean ± sd): 1.12 ± 0.08 µM
- IC50 (SET-2 cells; Homo sapiens, SET-2, SET-2 cell lines, value of each single replicate, read-out: IC50/μM): 1.07 µM
- Inhibition (%) (SET-2 cells; SET-2 cell lines, C 0.0977 μM): 12.0389% and 5.1759% and -0.6577% and 17.763% and 22.009% and 18.591%
- Inhibition (%) (SET-2 cells; SET-2 cell lines, C 0.1953 μM): 22.4478% and 11.8101% and 6.6629% and 13.309% and 23.874% and 25.324%
- Inhibition (%) (SET-2 cells; SET-2 cell lines, C 0.3906 μM): 33.6574% and 13.6403% and 14.6697% and 30.399% and 33.402% and 33.506%
- Inhibition (%) (SET-2 cells; SET-2 cell lines, C 0.7813 μM): 33.8862% and 39.7198% and 32.9711% and 35.163% and 37.960% and 48.110%
- Inhibition (%) (SET-2 cells; SET-2 cell lines, C 1.5625 μM): 69.3452% and 65.5705% and 67.2862% and 30.399% and 43.553% and 55.671%
- Inhibition (%) (SET-2 cells; SET-2 cell lines, C 3.1250 μM): 88.2185% and 85.2445% and 86.3883% and 75.039% and 80.010% and 81.357%
- Inhibition (%) (SET-2 cells; SET-2 cell lines, C 6.2500 μM): 86.3883% and 85.8164% and 88.9048% and 71.725% and 72.139% and 76.385%
- Inhibition (%) (SET-2 cells; SET-2 cell lines, C 12.5000 μM): 97.7123% and 97.3692% (2×) and 89.643% (2×) and 91.093%
- IC50 (SET-2 cells; SET-2 cell lines, value of each single replicate, read-out: IC50/μM): 1.16 µM
- Inhibition (%) (HEL cells; HEL cell lines, 0.0977 μM, single wells, replicates 1 and 2): 3.834% and 2.092% and -5.316% and -2.068% and -2.146% and 0.251%
- Inhibition (%) (HEL cells; HEL cell lines, 0.1953 μM, single wells, replicates 1 and 2): 5.577% and 4.096% and -7.320% and -6.244% and 7.056% and 1.643%
- Inhibition (%) (HEL cells; HEL cell lines, 0.3906 μM, single wells, replicates 1 and 2): 16.296% and 7.233% and 2.004% and -5.316% and 4.195% and -1.991%
- Inhibition (%) (HEL cells; HEL cell lines, 0.7813 μM, single wells, replicates 1 and 2): 26.492% and 16.296% and 14.205% and 10.690% and 13.319% and 1.875%
- Inhibition (%) (HEL cells; HEL cell lines, 1.5625 μM, single wells, replicates 1 and 2): 66.754% and 58.911% and 59.608% and 37.908% and 40.692% and 44.790%
- Inhibition (%) (HEL cells; HEL cell lines, 3.1250 μM, single wells, replicates 1 and 2, 3.125 µM): 88.628% and 87.669% and 91.881% and 90.412% and 89.871%
- Inhibition (%) (HEL cells; HEL cell lines, 6.2500 μM, single wells, replicates 1 and 2, 6.25 µM): 90.893% and 89.499% and 94.355% and 93.737% and 94.510%
- Inhibition (%) (HEL cells; HEL cell lines, 12.5000 μM, single wells, replicates 1 and 2, 12.5 µM): 91.590% and 91.503% and 95.902% (2×) and 96.056%
- IC50 (HEL cells; HEL cell lines, single-replicate fits, read-out: IC50/μM (individual replicates), cellular antiproliferative activity): 1.38 µM
- IC50 (HEL cells; Homo sapiens, HEL, 72 h, HEL cells, 72 h, mean ± SD, read-out: Cellular Antiproliferative Activity (IC50) HEL): 1.34 ± 0.06 µM
- inhibition at 3.125 µM (HEL cells; Homo sapiens, HEL, HEL cell lines, 3.1250 μM, single wells, replicates 1 and 2): 90.5%
- inhibition at 6.25 µM (HEL cells; Homo sapiens, HEL, HEL cell lines, 6.2500 μM, single wells, replicates 1 and 2): 92.1%
- inhibition at 12.5 µM (HEL cells; Homo sapiens, HEL, HEL cell lines, 12.5000 μM, single wells, replicates 1 and 2): 93.2%
- inhibition at 25 µM (HEL cells; Homo sapiens, HEL, HEL cell lines, […], single wells, replicates 1 and 2): 94.5%
- IC50 (HEL cells; Homo sapiens, HEL, HEL cell lines, mean of 2 replicates, read-out: IC50/μM mean, cellular antiproliferative activity): 1.34 µM
- IC50 (HEL cells; Homo sapiens, HEL, HEL cell lines, mean ± sd of 2 replicates, read-out: IC50/μM mean ± sd, cellular antiproliferative activity): 1.34 ± 0.06 µM
- IC50 (HEL cells; Homo sapiens, HEL, HEL cell lines, single-replicate fits, read-out: IC50/μM (individual replicates), cellular antiproliferative activity): 1.29 µM
- AUC(0-inf) (In vivo PK study in mice; iv): 227 ng·h/mL
- Cmax (In vivo PK study in mice; iv): 275 ng/mL
- Tmax (In vivo PK study in mice; iv): 4.98 min
- half-life (In vivo PK study in mice; iv): 18 min
- bioavailability (In vivo PK study in mice; oral): 11.7%
- AUC(0-inf) (In vivo PK study in mice; po): 50.2 ng·h/mL
- Cmax (In vivo PK study in mice; po): 6.81 ng/mL
- Tmax (In vivo PK study in mice; po): 60 min
- half-life (In vivo PK study in mice; po): 282 min
